The record followed here is ChEMBL document CHEMBL1135800, “Carbonic anhydrase inhibitors: anticonvulsant sulfonamides incorporating valproyl and other lipophilic moieties” (J Med Chem, 2002).

Experiment [1] deals with T1, Carbonic anhydrase 4 (Bos taurus, UniProt Q95323).
T1 sequence (Q95323 whole entry): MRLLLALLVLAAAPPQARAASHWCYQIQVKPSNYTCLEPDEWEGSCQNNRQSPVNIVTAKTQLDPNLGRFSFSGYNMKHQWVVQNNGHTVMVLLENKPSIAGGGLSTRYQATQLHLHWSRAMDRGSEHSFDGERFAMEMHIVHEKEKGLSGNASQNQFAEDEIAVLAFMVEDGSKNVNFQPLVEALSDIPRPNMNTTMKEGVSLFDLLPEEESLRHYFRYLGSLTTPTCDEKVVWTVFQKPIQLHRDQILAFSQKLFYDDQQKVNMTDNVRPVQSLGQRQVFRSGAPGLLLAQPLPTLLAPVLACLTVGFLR
Description: Inhibitory effect on bovine Carbonic anhydrase IV

In experiment [2] the target is Carbonic anhydrase 1 (Homo sapiens, UniProt P00915).
Description: Inhibitory effect on human carbonic anhydrase I
The target in experiment [3] is Carbonic anhydrase 2 (Homo sapiens, UniProt P00918).
Description: Inhibitory effect on human Carbonic anhydrase II
Experiment [4] relates to Mus musculus. In words: Anticonvulsant activity in mice by MES test at 0.5 hr following intraperitoneal injection of 10 mg/kg dose. It is filed as functional.
Experiment [5] relates to Mus musculus. Description: Anticonvulsant activity in mice by MES test at 0.5 h following intraperitoneal injection of 30 mg/kg dose. It is filed as functional.
Experiment [6] has as its system Mus musculus. Description: Anticonvulsant activity in mice by MES test at 3.0 hr following intraperitoneal injection of 30 mg/kg dose. It is filed as functional.
Experiment [7] relates to Mus musculus. Description: Anticonvulsant activity in mice by MES test at 3.0 hr following intraperitoneal injection of 10 mg/kg dose. It counts as functional.
Experiment [8] concerns Mus musculus. Description: Anticonvulsant activity in mice by MES test at 0.5 hr following intraperitoneal injection of 30 mg/kg dose. It counts as functional.
The test system of experiment [9] is Mus musculus. Description: Anticonvulsant activity in mice by MES test at 3.0 hr following intraperitoneal injection of 10 mg/kg dose. It is filed as functional.
Experiment [10] has as its system Mus musculus. In words: Anticonvulsant activity in mice by MES test at 0.5 hr following intraperitoneal injection of 10 mg/kg dose. It is filed as functional.
For experiment [11], the system named is Mus musculus. Description: Anticonvulsant activity in mice by MES test at 3.0 h following intraperitoneal injection of 30 mg/kg dose. It counts as functional.
For experiment [12], the species on record is Mus musculus. In words: MES test: number of mice treated / total number of mice 6.0 h. It counts as functional.
Experiment [13] is described as follows: Activity in MES test with six to eight OFI male mice for each time at 30 mg/kg dose at 6.0 h. It is filed as functional, Mus musculus.
For experiment [14], the species on record is Mus musculus. In words: MES test: number of mice treated / total number of mice at 0.5 h. It is filed as functional.
For experiment [15], the species on record is Mus musculus. In words: MES test: number of mice treated / total number of mice at 1.0 h. It is filed as functional.
The species named for experiment [16] is Mus musculus. Description: MES test: number of mice treated / total number of mice at 2.0 h. It is filed as functional.
The nature of experiment [17]: Activity in MES test with six to eight OFI male mice for each time at 30 mg/kg dose at 1.0 h. It is filed as functional, Mus musculus.
Experiment [18] can be described thus: Activity in MES test with six to eight OFI male mice for each time at 30 mg/kg dose at 4.0 h. It counts as functional, Mus musculus.
Experiment [19] is filed under the species Mus musculus. In words: MES test: number of mice treated / total number of mice 4.0 h. It is filed as functional.
Experiment [20] can be described thus: Activity in MES test with six to eight OFI male mice for each time at 30 mg/kg dose at 2.0 h. It counts as functional, Mus musculus.
The species entered for experiment [21] is Mus musculus. Description: MES test: number of mice treated / total number of mice at 3.0 h. It is filed as functional.
Experiment [22] relates to Mus musculus. In words: Anticonvulsant activity in mice by MES test at 3.0 hr following intraperitoneal injection of 30 mg/kg dose. It counts as functional.
Experiment [23] can be described thus: Activity in MES test with six to eight OFI male mice for each time at 30 mg/kg dose at 3.0 h. It counts as functional, Mus musculus.
Experiment [24] in a line: Activity in MES test with six to eight OFI male mice for each time at 30 mg/kg dose at 0.5 h. It counts as functional, Mus musculus.

Carbonic anhydrase 1, sequence (P00915 whole entry): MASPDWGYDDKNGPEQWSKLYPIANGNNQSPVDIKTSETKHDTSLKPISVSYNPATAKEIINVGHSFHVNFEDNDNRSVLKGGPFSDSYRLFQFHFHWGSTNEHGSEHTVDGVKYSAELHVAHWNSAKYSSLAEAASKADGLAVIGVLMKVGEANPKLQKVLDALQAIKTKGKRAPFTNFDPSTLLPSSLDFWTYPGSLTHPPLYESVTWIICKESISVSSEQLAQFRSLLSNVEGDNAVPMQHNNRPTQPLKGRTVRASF

The term Ki denotes the dissociation constant of the complex between target and ligand, obtained from inhibition or displacement. With `CCCC(CCC)C(=O)Nc1ccc(S(N)(=O)=O)cc1Cl`, the Ki came out at 125 nM in [1], 950 nM in [2] and 50 nM in [3].

On to `CCCC(CCC)C(=O)NCc1ccc(S(N)(=O)=O)cc1`, for which the values for the Ki in experiment [1], in experiment [2] and in [3] were 210 nM, 3700 nM and 96 nM, respectively.

With `NS(=O)(=O)c1nnc(NC(=O)C23C[C@H]4C[C@@H](C2)C[C@@H](C3)C4)s1`, the Ki in experiment [1] turned out to be 65 nM; in [2] it was 850 nM. Moreover, the Protected mice is recorded as 25% in [4], 83% in [5], 96% in [6] and 93% in experiment [7].

On to `CCCC(CCC)C(=O)Oc1ccc2nc(S(N)(=O)=O)sc2c1`, for which the Ki was 15 nM in experiment [1], 50 nM in experiment [2] and 7 nM in experiment [3].

For the compound `CCCC(CCC)C(=O)OCCc1ccc(S(N)(=O)=O)cc1`, the Ki in [1] stood at 313 nM; in [2] it was 1300 nM; in experiment [3], 844 nM.

Turning to `CC(C)(C)C(=O)Nc1nnc(S(N)(=O)=O)s1`, the Ki in experiment [1] stood at 46 nM; in experiment [2], 110 nM. Moreover, the Protected mice in experiment [4] is 44%; in experiment [8], 75%; in [6], 100%; in experiment [7], 87%.

With `CCCC(CCC)C(=O)Nc1ccc(S(N)(=O)=O)cc1F`, the Ki in experiment [1] was found to be 110 nM; in experiment [2], 1000 nM; in experiment [3], 45 nM.

On to `CCCC(CCC)C(=O)Nc1c(S(N)(=O)=O)cc(S(N)(=O)=O)c(Cl)c1Cl`, for which the Ki in experiment [1] was 155 nM; in [2] it was 970 nM; in experiment [3], 26 nM.

For `CCCC(CCC)C(=O)Nc1ccccc1S(N)(=O)=O`, the Ki is 950 nM in experiment [1], 23000 nM in experiment [2] and 255 nM in experiment [3].

Consider `CCCC(CCC)C(=O)NCCc1ccc(S(N)(=O)=O)cc1`, for which the Ki in [1] worked out at 200 nM; in experiment [2], 3500 nM; in [3], 84 nM.

For the compound `CCCC(CCC)C(=O)OCCOc1ccc2nc(S(N)(=O)=O)sc2c1`, the Ki in [1] is 13 nM; in experiment [2] it was 50 nM; in experiment [3], 7 nM.

As for `NS(=O)(=O)c1nnc(NS(=O)(=O)Cc2ccccc2)s1`, the Ki in experiment [1] turned out to be 6 nM; in [2], 7 nM; in experiment [3], 5 nM. Moreover, the Protected mice in experiment [5] was 67%; in experiment [6], 38%.

For the compound `CCCC(CCC)C(=O)Nc1ccc(S(N)(=O)=O)cc1I`, the Ki in [1] was 85 nM; in experiment [2] it was 550 nM; in [3] it was 43 nM.

For `NS(=O)(=O)c1nnc(NS(=O)(=O)c2ccc(NC(=O)[C@@H]3C4C=CC(C4)C3C(=O)O)cc2)s1` (stereo partly drawn), the Ki in [1] is 4 nM; in [2], 5.5 nM; in experiment [3] it was 1.5 nM. The Protected mice is reported as 25% in [5] and 33% in experiment [6].

On to `NS(=O)(=O)c1nnc(NC(=O)c2ccccc2)s1`, for which the results for the Ki in experiment [1] and in experiment [2] were 21 nM and 38 nM, respectively. The figures for the Protected mice in experiment [5] and in [6] were 83% and 25%, respectively.

`CC1(C)O[C@@H]2[C@@H](CO[C@@]3(COS(N)(=O)=O)OC(C)(C)O[C@@H]23)O1` [TOPIRAMATE] returned a Ki in experiment [1] of 54 nM. Moreover, the Protected mice in experiment [8] is reported as 100%; in [9], 50%; in experiment [10], 62%; in [11], 83%.

As for `CCCC(CCC)C(=O)NNc1ccc(S(N)(=O)=O)cc1`, the figures for the Ki in [1], in experiment [2] and in [3] were 950 nM, 35600 nM and 300 nM, respectively.

For the compound `CCCC(CCC)C(=O)Nc1ccc(S(N)(=O)=O)cc1`, the values for the Ki in experiment [1], in [2] and in [3] were 630 nM, 22500 nM and 240 nM, respectively.

Consider `CC(C)(C)OC(=O)Nc1nnc(S(N)(=O)=O)s1`, for which the Ki was 130 nM in experiment [1], 460 nM in experiment [2] and 9 nM in experiment [3]. The Protected mice in [5] is reported as 75%; in experiment [6] it was 60%.

Regarding `Cc1ccc(S(=O)(=O)NC(=O)Nc2nnc(S(N)(=O)=O)s2)cc1`, the Ki in [1] was determined as 12 nM; in [2], 3 nM; in experiment [3] it was 4 nM. For the same compound, the Protected mice in experiment [5] is recorded as 8%; in [6], 33%.

Take `CCCC(CCC)C(=O)Nc1ccc(S(N)(=O)=O)cc1Br`: the Ki in experiment [1] came out at 49 nM; in [2], 600 nM; in [3], 36 nM.

As to `CCCC(CCC)C(=O)Nc1nnc(S(N)(=O)=O)s1`, the No. of mice in experiment [12] was found to be 5; in experiment [14], 7.5; in [15], 6.5; in experiment [16] it was 8; in [19], 4; in experiment [21], 7. Besides, the Ki in experiment [1] is 25 nM; in [2] it was 50 nM; in experiment [3], 6 nM. The Protected mice was found to be 63% in experiment [13]; 96% in [8]; 81% in experiment [17]; 50% in [18]; 100% in [9]; 100% in experiment [20]. In addition, the Protected mice was 25% in [10], 93% in experiment [22], 93% in experiment [23] and 96% in [24].

Turning to `CCCC(CCC)C(=O)Nc1cc(Cl)c(S(N)(=O)=O)cc1S(N)(=O)=O`, the inhibitory constant (Ki) in experiment [1] amounted to 133 nM; in [2] it was 800 nM; in [3], 70 nM.

For the compound `COc1cc(C(=O)Nc2nnc(S(N)(=O)=O)s2)cc(OC)c1OC`, the Ki in experiment [1] was 51 nM; in [2], 900 nM; in [3] it was 10 nM. For the same compound, the Protected mice is recorded as 25% in experiment [8] and 67% in experiment [6].

With `CCCC(CCC)C(=O)NCCC(=O)Nc1nnc(S(N)(=O)=O)s1`, the results for the Ki in [1], in experiment [2] and in experiment [3] were 76 nM, 360 nM and 9 nM, respectively.

As to `CCCC(CCC)C(=O)Nc1ccc2nc(S(N)(=O)=O)sc2c1`, the Ki in [1] stood at 16 nM; in experiment [2], 62 nM; in [3], 7 nM.

With `CC(=O)/N=c1/sc(S(N)(=O)=O)nn1C` [METHAZOLAMIDE], the Protected mice came to 75% in [4], 83% in [5], 100% in [6] and 88% in experiment [7].

For `CCCC(CCC)C(=O)/N=c1/sc(S(N)(=O)=O)nn1C`, the results for the Ki in experiment [1], in experiment [2] and in experiment [3] were 42 nM, 70 nM and 10 nM, respectively.

In the case of `NS(=O)(=O)c1nnc(NC(=O)CCNS(=O)(=O)c2ccc(I)cc2)s1`, the Ki came to 120 nM in experiment [1], 260 nM in experiment [2] and 1.2 nM in experiment [3]. Moreover, the figures for the Protected mice in experiment [5] and in experiment [22] were 33% and 25%, respectively.

In the case of `CCCC(CCC)C(=O)OCc1ccc(S(N)(=O)=O)cc1`, the inhibition constant Ki in [1] turned out to be 333 nM; in experiment [2], 1500 nM; in [3], 115 nM.

Regarding `Cc1ccc(S(=O)(=O)Nc2nnc(S(N)(=O)=O)s2)cc1`, the figures for the Ki in [1], in [2] and in experiment [3] were 3 nM, 5 nM and 4 nM, respectively. Besides, the Protected mice in experiment [4] is reported as 12%; in experiment [8] it was 92%; in experiment [6] it was 75%; in experiment [7] it was 62%.

As for `CCCC(CCC)C(=O)Nc1cccc(S(N)(=O)=O)c1`, the Ki in experiment [1] is 740 nM; in experiment [2], 19000 nM; in experiment [3], 221 nM.
